Laboratory results published in patent publication US20090252754A1, “Vaccines containing the hiv tat protein as an adjuvant for the enhancement of cytotoxic t-cell responses” (priority 2003, published 2009).

How the values were obtained:
[1] = test system: proteasomes purified from Jurkat cells; assay: Enzymatic assays of proteasomes purified from Jurkat cells treated with Tat; assay type: biochemical, human; conditions: proteasomes from Jurkat cells treated for 24 h with 1 μg/ml Tat protein vs control cells
Description: Cells were lysed with glass beads as previously described (4). Supernatants were ultracentrifuged for 1 h at 100,000 g and loaded into an affinity column containing a matrix derivatised with the MCP21 mAb specific for the α2 subunit of the proteasome (Affinity, Exeter, UK). Proteasomes were eluted with 25 mM Tris-HCl pH 7.5 containing 2 M NaCl, and 0.5 ml fractions were collected. Homogeneity of the eluted material was confirmed by analysis of an aliquot by SDS 12% PAGE and Coomassie blue staining of the gel. Fractions containing proteasomes were combined and dialysed against 25 mM Tris-HCl pH 7.5. Protein concentration was determined using the BCA method (Pierce Chemical, Rockford, Ill.).
The chymotrypsin-like, trypsin-like and post-acidic activities of purified proteasomes were tested using the fluorogenic substrates Suc-LLVY-AMC, Boc-LRR-AMC and Ac-YVAD-AMC, respectively, as previously described (4). Fluorescence was determined by a fluorimeter (Spectrafluor plus, Tecan, Salzburg, Austria). Proteasome activity is expressed as arbitrary fluorescence units.
To investigate whether the differences in subunit composition correlated with differences in enzymatic activity, we analysed the cleavage specificity of equal amounts of proteasomes purified from Jurkat cells treated for 24 h with 1 μg/ml Tat protein or from control cells. […]

[2] = test system: MIN and MON LCL's (EBV IVT, AVF, YLQ, CLG epitopes); assay: Cytotoxicity assay of EBV epitope-specific CTLs against LCL targets
Description: HLA A11-restricted EBV-specific CTL cultures reacting against the EBNA4-derived [sequence] (SEQ ID NO 280) (IVT) and [sequence] […] (SEQ ID NO 282) (CLG) epitope, corresponding to amino acid 426-434^28, and the Lmp1-derived [sequence] […] The first stimulation was performed in RPMI 1640 medium containing 10% FCS. A second and a third stimulation were performed in the same conditions on day 7 and day 14. Starting from day 8 the medium was supplemented with 10 U/ml rIL-2 (Chiron, Milan, Italy).
Target cells were labelled with Na2^51CrO4 for 90 min at 37° C. Cytotoxicity tests were routinely run at different effector: target ratios in triplicate. Percent specific lysis was calculated as 100×(cpm sample−cpm medium)/(cpm Triton X-100−cpm medium)^27. Spontaneous release was always less than 20%.
To this purpose, the HLA-2 and -A11 positive MIN LCL and the HLA-A2 positive MON LCL, transduced or not with Tat, were tested as target in cytotoxic assays using CTL cultures specific for the IVT, AVF, CLG and YLQ epitopes (FIG. 6).

[3] = test system: proteasome subunits (α2, PA28α, LMP2, LMP7, MECL1) in MIN and MON LCL's; assay: Western blot of proteasome subunits in lymphoblastoid cell lines expressing or treated with Tat; assay type: cell-based, human
Description: PG13 murine amphotropic packaging cell line^54 was cultured in DMEM supplemented with 10% FCS. Jurkat T cell transfectants (pRPneo-c and pRPneo-c-Tat)^22 were cultured in RPMI 1640 medium, supplemented with 10% FCS and 800 μg/ml neomycin (Sigma). Lymphoblastoid cell lines (LCL) were established by in vitro infection of normal B-lymphocytes from healthy donors with the B95.8 strain of EBV. LCL's were cultured in RPMI 1640 medium supplemented with 10% FCS.
MIN and MON LCL's were transduced with pBabePuro-Tat (MIN-Tat and MON-Tat) or pBabePuro (MIN-0 and MON-0) recombinant retroviruses by co-cultivation with packaging cell lines using transwell-clear tissue culture membranes. Subconfluent PG13 pBabePuro and PG13 pBabePuro-Tat cells, grown in the lower chamber, were co-cultivated in the presence of 8 μg/ml polybrene (Sigma) with MIN or MON LCL's (3×10^6/well) added to the upper chamber in 2.5 ml of RPMI 1640 medium supplemented with 10% FCS. After 48 hrs of co-cultivation, cells were harvested from the membranes and grown in culture medium containing puromycin (0.3 μg/ml) for 6 weeks. All cell lines were characterised by DNA-PCR, RT-PCR and Northern blot analysis.
Equal amounts of proteins were loaded on a 12% SDS-PAGE gel and electroblotted onto Protran nitrocellulose membranes (Schleicher & Schuell, Keene, Hampshire, USA). The blots were probed with antibodies specific for α2, LMP2, LMP7, MECL1, and PA28α subunits (Affinity, Exeter, UK) and developed by enhanced chemiluminescence (ECL, Amersham Pharmacia Biotech, Uppsala, SW).
To test the effect on proteasomes in cells after the up-take of exogenous Tat protein, MIN and MON LCL's were cultured in the absence or presence of increasing concentrations of biologically active Tat protein for 24 hours at 37° C. After treatment, the expression of the different subunits was analysed and compared to that of untreated cells. […] However, treatment with 0.1-1 μg/ml of Tat determined a down-regulation of LMP2 and an up-regulation of LMP7 and MECL1 as compared to untreated cells (FIG. 4).

[4] = test system: proteasomes purified from MIN and MON LCL's; assay: Enzyme assays of proteasomes purified from LCL's (Suc-LLVY-AMC, Boc-LRR-AMC, Ac-YVAD-AMC); assay type: biochemical, human
Description: Cells (5×10^7) were washed in cold PBS and resuspended in buffer containing 50 mM Tris-HCl pH 7.5, 5 mM MgCl2, 1 mM dithiothreitol (DTT, Sigma), 2 mM ATP, 250 mM sucrose. Glass beads equivalent to the volume of the cellular suspension were added and cells were vortexed for 1 min at 4° C. Beads and cell debris were removed by 5 minutes centrifugation at 1000×g, followed by 20 minutes centrifugation at 10,000×g. Supernatants were ultracentrifuged for 1 hour at 100,000×g^44. Supernatants were loaded into an affinity column containing an agarose matrix derivatised with the MCP21 mAb specific for the α2 subunit of the proteasome (Affinity, Exeter, UK). […] Protein concentration was determined using BCA protocol (Pierce Chemical).
The fluorogenic substrates Suc-LLVY-AMC, Boc-LRR-AMC and Ac-YVAD-AMC were used to measure chymotrypsin-like, trypsin-like and post-acidic proteasome activities, respectively. […] Fluorescence was determined by a fluorimeter (Spectrafluor plus, Tecan, Salzburg, Austria) using an excitation of 360 nm and emission of 465 nm. Proteasome activity is expressed in arbitrary fluorescence units^11.
To investigate whether the differences in subunit composition detected by Western blot analysis correlated with differences in enzymatic activity, we analysed the cleavage specificity of equal amount of proteasomes isolated from MIN-Tat and MON-Tat cells or control cells. […]

[5] = LCL expressing endogenous Tat vs empty vector
[6] = MIN LCL treated with 0.1 μg/ml Tat protein for 24 hours vs untreated
[7] = LCL's expressing endogenous Tat vs control cells
[8] = LCL's treated with 0.1-1 μg/ml of Tat, 24 hours, vs untreated

Substance: Tat: HIV-1 Tat protein from HTLV type IIIB isolate, expressed in E. Coli or endogenously in cells; wild type SEQ ID NO 284
- chymotryptic-like, tryptic-like and post-acidic activities [1]: all augmented
- IVT- and AVF-specific CTL killing [2, 5]: decrease
- YLQ- and CLG-specific killing [2, 5]: increase
- lysis by YLQ- and CLG-specific CTLs [2, 6]: lysed at higher efficiency
- sensitivity to IVT- and AVF-specific CTL killing [2, 6]: less sensitive
- proteasome expression (α2-subunit) ([3]; LCL's expressing endogenous Tat (MIN-Tat, MON-Tat) vs control cells): No difference
- expression of LMP2 [3, 7]: marked down-regulation
- expression of LMP7 [3, 7]: up-regulation
- expression of MECL1 [3, 7]: up-regulation
- expression of PA28α regulator [3, 7]: no differences
- expression of LMP2 [3, 8]: down-regulation
- expression of LMP7 [3, 8]: up-regulation
- expression of MECL1 [3, 8]: up-regulation
- expression of the α2-subunit ([3]; MIN and MON LCL's cultured with exogenous Tat protein, 24 hours, vs untreated): No difference
- three proteolytic activities of proteasomes ([4]; proteasomes from MIN and MON LCL's treated with 0.1 μg/ml of Tat (data not shown)): increase of all three proteolytic activities
- chymotryptic-like, tryptic-like and post-acidic activities of proteasomes ([4]; proteasomes from MIN-Tat and MON-Tat cells vs control cells): higher
